How the values were obtained:
[1] = xn = mol fraction of the nth substance listed; settings: Liquid, Hot wire method
[2] = 294.2 K, Liquid, Hot wire method

CCCCn1cc[n+](C)c1.F[P-](F)(F)(F)(F)F [1-butyl-3-methylimidazolium hexafluorophosphate] + O=C=O
thermal conductivity [W/m/K], [1]
Settings | x2 = 0.108 | x2 = 0.22 | x2 = 0.328 | x2 = 0.42
294.4 K, 10000 kPa | 0.148 | 0.149 | 0.15 | 0.148
294.4 K, 20000 kPa | 0.15 | 0.151 | 0.152 | 0.149
314.5 K, 10000 kPa | 0.149 | 0.149 | 0.152 | 0.148
314.5 K, 20000 kPa | 0.151 | 0.152 | 0.153 | 0.148
334.2 K, 10000 kPa | 0.148 | 0.15 | 0.15 | 0.148
334.2 K, 20000 kPa | 0.151 | 0.152 | 0.151 | 0.149

CCCCn1cc[n+](C)c1.F[B-](F)(F)F [1-butyl-3-methylimidazolium tetrafluoroborate] + O=C=O
thermal conductivity [W/m/K], [1]
Settings | 294.2 K | 314.3 K | 334.3 K
10000 kPa, x2 = 0.169 | 0.173 | 0.173 | 0.173
10000 kPa, x2 = 0.308 | 0.17 | 0.169 | 0.169
10000 kPa, x2 = 0.422 | 0.171 | 0.17 | 0.169
20000 kPa, x2 = 0.169 | 0.174 | 0.175 | 0.175
20000 kPa, x2 = 0.308 | 0.172 | 0.17 | 0.17
20000 kPa, x2 = 0.422 | 0.171 | 0.17 | 0.169

Cn1ccnc1 [1-methylimidazole]
[2]
Settings | thermal conductivity [W/m/K]
10000 kPa | 0.194
20000 kPa | 0.196

Cn1ccnc1 [1-methylimidazole] + O=C=O
thermal conductivity [W/m/K], [1], 294.2 K
Settings | x2 = 0 | x2 = 0.157 | x2 = 0.261 | x2 = 0.337 | x2 = 0.43
10000 kPa | 0.194 | 0.187 | 0.184 | 0.18 | 0.176
20000 kPa | 0.196 | 0.19 | 0.187 | 0.184 | 0.18
